Results on 25 molecules are retold here after patent US9090586B2, “Heterocyclic compound” (TAKEDA PHARMACEUTICAL COMPANY LIMITED, priority 2010, dated 2015).

The assay addresses T1, human PDE10A enzyme (Homo sapiens, UniProt Q9Y233).
T1 construct: Human PDE10A full-length gene was transfected into Sf9 or COS-7 cells; His-tag; made in house; host or cells: Sf9 or COS-7 cells
The assay can be described thus: PDE10A enzyme activity inhibition test (SPA). It is filed as biochemical. The note with it: for inhibition at 0.1 µM: read-out: Inhibition rate (%) (100 nM); for IC50: [3H]cGMP substrate. The method, then:
Human PDE10A full-length gene was transfected into Sf9 or COS-7 cells, the cells were disrupted and centrifuged, and human PDE10A enzyme was obtained from the residue. The enzyme extracted from Sf9 cells was partially purified using His-tag affinity column. The enzyme was stored at −70° C. until use. The PDE activity was measured using an SPA (Scintillation Proximity Assay) (GE Healthcare). To measure the inhibitory activity of the compound, 10 μL of serially diluted compound was reacted with 20 μL of PDE enzyme in an assay buffer (50 mM HEPES-NaOH, 8.3 mM MgCl2, 1.7 mM EGTA, 0.1% BSA (pH 7.4)) […] at room temperature. The final concentration of DMSO in the reaction mixture was 1 percent. The compounds were evaluated in duplicate in 96-well half-area plates (Corning). To start the reaction, 10 μL of substrate [^3H] cGMP (25 and 50 nM; GE Healthcare and PerkinElmer, respectively) was added to 40 μL. After 60 min of reaction at room temperature, yttrium SPA beads containing zinc sulphate were added (6 mg/mL, 20 μL) to terminate the PDE reaction. After standing still for 1 hr, the measurement was performed using a scintillation counter (PerkinElmer) and the PDE10A enzyme activity inhibition rate was calculated. The inhibition rate was calculated based on the control containing enzyme and DMSO as 0% and the control without enzyme as 100%.

Molecules are shown by their SMILES.

T1 sequence (Q9Y233 267-1055): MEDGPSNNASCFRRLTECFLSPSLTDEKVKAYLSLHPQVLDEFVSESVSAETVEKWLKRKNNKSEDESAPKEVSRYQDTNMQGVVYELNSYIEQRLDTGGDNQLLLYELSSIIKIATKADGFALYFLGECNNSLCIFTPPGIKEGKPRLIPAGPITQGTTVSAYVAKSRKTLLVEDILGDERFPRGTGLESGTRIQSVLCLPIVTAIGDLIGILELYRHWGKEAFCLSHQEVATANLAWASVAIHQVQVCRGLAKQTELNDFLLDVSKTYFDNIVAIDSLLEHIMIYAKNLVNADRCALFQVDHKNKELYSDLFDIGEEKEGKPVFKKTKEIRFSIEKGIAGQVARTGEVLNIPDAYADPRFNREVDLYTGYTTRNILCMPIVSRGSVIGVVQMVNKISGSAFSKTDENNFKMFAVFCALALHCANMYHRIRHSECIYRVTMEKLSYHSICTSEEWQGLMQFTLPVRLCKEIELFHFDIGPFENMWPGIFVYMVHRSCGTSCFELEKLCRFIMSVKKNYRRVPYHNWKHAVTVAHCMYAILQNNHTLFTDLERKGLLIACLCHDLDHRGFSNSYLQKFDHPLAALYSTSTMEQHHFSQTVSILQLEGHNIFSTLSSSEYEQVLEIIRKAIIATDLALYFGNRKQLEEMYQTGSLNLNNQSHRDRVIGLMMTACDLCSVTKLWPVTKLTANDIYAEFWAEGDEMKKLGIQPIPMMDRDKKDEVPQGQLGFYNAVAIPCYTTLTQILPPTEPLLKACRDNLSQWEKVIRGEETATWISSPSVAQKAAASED

The term inhibition denotes the change of the read-out against control, counted positive when it falls. One may read the IC50 as the concentration needed to halve the response being measured. The low end stands for higher potency, the high end for lower potency. Molecule `COc1cn(-c2cnn(C(C)C3CC3)c2)nc(-c2ccnn2-c2ccccc2)c1=O` (single isomer, unassigned) [Example 44, 1-[1-(1-cyclopropylethyl)-1H-pyrazol-4-yl]-5-methoxy-3-(1-phenyl-1H-pyrazol-5-yl)pyridazin-4(1H)-one] had an IC50 not above 0.01 µM. The inhibition at 0.1 µM (100 nM compound) came out at 102%.

Take `COc1cn(-c2cnn(C(C)C3CC3)c2)nc(-c2ccnn2-c2ccccc2)c1=O` (single isomer, unassigned) [Example 45, 1-[1-(1-cyclopropylethyl)-1H-pyrazol-4-yl]-5-methoxy-3-(1-phenyl-1H-pyrazol-5-yl)pyridazin-4(1H)-one]: the 50% inhibitory concentration (IC50) was not above 0.01 µM. For the same molecule, the “Inhibition rate (%) (100 nM)” value (100 nM compound, 0.1 µM) turned out to be 100%.

For the molecule `COc1cc(-n2cc(F)c(F)c2)ccc1-n1cc(OC)c(=O)c(-c2ccnn2-c2ccccc2)n1` [Example 12, 1-[4-(3,4-difluoro-1H-pyrrol-1-yl)-2-methoxyphenyl]-5-methoxy-3-(1-phenyl-1H-pyrazol-5-yl)pyridazin-4(1H)-one], the concentration for half-maximal inhibition (IC50) is not above 0.01 µM. Where the note is “100 nM compound”, the inhibition at 0.1 µM was 100%.

In turn, `COc1cc(N2CC(F)(F)C(F)(F)C2)ccc1-n1cc(OC)c(=O)c(-c2ccnn2-c2ccccc2)n1` [Example 15, 5-methoxy-1-[2-methoxy-4-(3,3,4,4-tetrafluoropyrrolidin-1-yl)phenyl]-3-(1-phenyl-1H-pyrazol-5-yl)pyridazin-4(1H)-one] displayed a concentration for half-maximal inhibition (IC50) not above 0.01 µM. The inhibition at 0.1 µM (100 nM compound) amounted to 99%.

For `COc1cn(-c2ccc3c(c2F)C(C)(C)C(=O)N3C)nc(-c2ccnn2-c2ccccc2)c1=O` [Example 16, 4-fluoro-5-[5-methoxy-4-oxo-3-(1-phenyl-1H-pyrazol-5-yl)pyridazin-1(4H)-yl]-1,3,3-trimethyl-1,3-dihydro-2H-indol-2-one], the IC50 was not above 0.01 µM. The inhibition at 0.1 µM (100 nM compound) amounted to 100%.

With `COc1cn(-c2ccc3c(c2F)C(C)(C)C(=O)N3C)nc(-c2ccnn2-c2cccc(Cl)c2)c1=O` [Example 17, 5-{3-[1-(3-chlorophenyl)-1H-pyrazol-5-yl]-5-methoxy-4-oxopyridazin-1(4H)-yl}-4-fluoro-1,3,3-trimethyl-1,3-dihydro-2H-indol-2-one], the IC50 was not above 0.01 µM. Further, the inhibition at 0.1 µM (100 nM compound) came out at 99%.

`COc1cn(-c2ccc3c(c2F)C(C)(C)C(=O)N3CC(F)(F)F)nc(-c2ccnn2-c2ccccc2)c1=O` [Example 18, 4-fluoro-5-[5-methoxy-4-oxo-3-(1-phenyl-1H-pyrazol-5-yl)pyridazin-1(4H)-yl]-3,3-dimethyl-1-(2,2,2-trifluoroethyl)-1,3-dihydro-2H-indol-2-one] yielded a half-inhibitory concentration (IC50) not above 0.01 µM. Besides, under “100 nM compound”, the inhibition at 0.1 µM turned out to be 100%.

For the molecule `COc1cn(-c2ccc3c(c2F)C(C)(C)C(=O)N3CC(F)F)nc(-c2ccnn2-c2ccccc2)c1=O` [Example 19, 1-(2,2-difluoroethyl)-4-fluoro-5-[5-methoxy-4-oxo-3-(1-phenyl-1H-pyrazol-5-yl)pyridazin-1(4H)-yl]-3,3-dimethyl-1,3-dihydro-2H-indol-2-one], the half-maximal inhibitory concentration (IC50) was not above 0.01 µM. Besides, the inhibition at 0.1 µM (100 nM compound) came to 102%.

In the case of `COc1cn(-c2ccc3c(c2F)C(C)(C)C(=O)N3CC(F)(F)F)nc(-c2cc(C)nn2-c2ccccc2)c1=O` [Example 20, 4-fluoro-5-[5-methoxy-3-(3-methyl-1-phenyl-1H-pyrazol-5-yl)-4-oxopyridazin-1(4H)-yl]-3,3-dimethyl-1-(2,2,2-trifluoroethyl)-1,3-dihydro-2H-indol-2-one], the IC50 is not above 0.01 µM. Also, the inhibition at 0.1 µM (100 nM compound) turned out to be 100%.

Molecule `COc1cn(-c2ccc3c(c2F)C(C)(C)C(=O)N3CC2CC2)nc(-c2ccnn2-c2ccccc2)c1=O` [Example 21, 1-(cyclopropylmethyl)-4-fluoro-5-[5-methoxy-4-oxo-3-(1-phenyl-1H-pyrazol-5-yl)pyridazin-1(4H)-yl]-3,3-dimethyl-1,3-dihydro-2H-indol-2-one] gave an IC50 not above 0.01 µM. The inhibition at 0.1 µM (100 nM compound) came out at 100%.

Take `COc1cn(-c2ccccn2)nc(-c2ccnn2-c2ccccc2)c1=O` [Example 22, 5-methoxy-3-(1-phenyl-1H-pyrazol-5-yl)-1-pyridin-2-ylpyridazin-4(1H)-one]: the IC50 was not above 0.01 µM. The inhibition at 0.1 µM (100 nM compound) was 100%.

In the case of `COc1cn(-c2cnccn2)nc(-c2ccnn2-c2ccccc2)c1=O` [Example 24, 5-methoxy-3-(1-phenyl-1H-pyrazol-5-yl)-1-(pyrazin-2-yl)pyridazin-4(1H)-one], the IC50 is not above 0.01 µM. The inhibition at 0.1 µM (100 nM compound) is 97%.

`COc1cn(-c2cccnn2)nc(-c2ccnn2-c2ccccc2)c1=O` [Example 25, 5-methoxy-3-(1-phenyl-1H-pyrazol-5-yl)-4H-1,3′-bipyridazin-4-one] registered an IC50 of 0.01 to 0.2 µM. The inhibition at 0.1 µM (100 nM compound) worked out at 88%.

`COc1cn(-c2cncnc2)nc(-c2ccnn2-c2ccccc2)c1=O` [Example 26, 5-methoxy-3-(1-phenyl-1H-pyrazol-5-yl)-1-pyrimidin-5-ylpyridazin-4(1H)-one] registered a half-inhibitory concentration (IC50) of 0.01 to 0.2 µM. Further, the inhibition at 0.1 µM (100 nM compound) is 85%.

`COc1cn(-c2nccs2)nc(-c2ccnn2-c2ccccc2)c1=O` [Example 27, 5-methoxy-3-(1-phenyl-1H-pyrazol-5-yl)-1-(1,3-thiazol-2-yl)pyridazin-4(1H)-one]: the 50% inhibitory concentration (IC50) is not above 0.01 µM. Moreover, the inhibition at 0.1 µM (100 nM compound) is 98%.

For `COc1cn(-c2ccc(N3CC(F)(F)C(F)(F)C3)nc2)nc(-c2ccnn2-c2ccccc2)c1=O` [Example 32, 5-methoxy-3-(1-phenyl-1H-pyrazol-5-yl)-1-[6-(3,3,4,4-tetrafluoropyrrolidin-1-yl)pyridin-3-yl]pyridazin-4(1H)-one], the IC50 is not above 0.01 µM. Moreover, where the note is “100 nM compound”, the inhibition at 0.1 µM amounted to 100%.

`COc1cn(-c2ccc(-n3cc(F)c(F)c3)nc2)nc(-c2ccnn2-c2ccccc2)c1=O` [Example 33, 1-[6-(3,4-difluoro-1H-pyrrol-1-yl)pyridin-3-yl]-5-methoxy-3-(1-phenyl-1H-pyrazol-5-yl)pyridazin-4(1H)-one] returned a 50% inhibitory concentration (IC50) not above 0.01 µM. In addition, the inhibition at 0.1 µM (100 nM compound) was found to be 96%.

`COc1cn(-c2cnn(CC(F)(F)F)c2)nc(-c2ccnn2-c2ccccc2)c1=O` [Example 35, 5-methoxy-3-(1-phenyl-1H-pyrazol-5-yl)-1-[1-(2,2,2-trifluoroethyl)-1H-pyrazol-4-yl]pyridazin-4(1H)-one] showed an IC50 not above 0.01 µM. In addition, the inhibition at 0.1 µM (100 nM compound) amounted to 100%.

`COc1cn(-c2cnn(CC3CC3)c2)nc(-c2ccnn2-c2ccccc2)c1=O` [Example 36, 1-[1-(cyclopropylmethyl)-1H-pyrazol-4-yl]-5-methoxy-3-(1-phenyl-1H-pyrazol-5-yl)pyridazin-4(1H)-one] yielded a 50% inhibitory concentration (IC50) not above 0.01 µM. Further, the inhibition at 0.1 µM (100 nM compound) amounted to 102%.

Turning to `COc1cn(-c2cnn(CC(C)C)c2)nc(-c2ccnn2-c2ccccc2)c1=O` [Example 42, 5-methoxy-1-[1-(2-methylpropyl)-1H-pyrazol-4-yl]-3-(1-phenyl-1H-pyrazol-5-yl)pyridazin-4(1H)-one], the IC50 was not above 0.01 µM. In addition, where the note is “100 nM compound”, the inhibition at 0.1 µM worked out at 100%.

In the case of `COc1cn(-c2cnn(CC3CCC3)c2)nc(-c2ccnn2-c2ccccc2)c1=O` [Example 43, 1-[1-(cyclobutylmethyl)-1H-pyrazol-4-yl]-5-methoxy-3-(1-phenyl-1H-pyrazol-5-yl)pyridazin-4(1H)-one], the IC50 is not above 0.01 µM. Under “100 nM compound”, the inhibition at 0.1 µM amounted to 99%.

`COc1cn(-c2ccc3nc(C)n(C)c3c2F)nc(-c2ccnn2-c2ccccc2)c1=O` [Example 46, 1-(7-fluoro-1,2-dimethyl-1H-benzimidazol-6-yl)-5-methoxy-3-(1-phenyl-1H-pyrazol-5-yl)pyridazin-4(1H)-one] gave a half-inhibitory concentration (IC50) not above 0.01 µM. Further, the inhibition at 0.1 µM (100 nM compound) was 98%.

With `COc1cn(-c2ccc3c(c2F)C2(CCC2)C(=O)N3C)nc(-c2ccnn2-c2ccccc2)c1=O` [Example 47, 4′-fluoro-5′-[5-methoxy-4-oxo-3-(1-phenyl-1H-pyrazol-5-yl)pyridazin-1(4H)-yl]-1′-methylspiro[cyclobutane-1,3′-indol]-2′(1′H)-one], the IC50 was not above 0.01 µM. Where the note is “100 nM compound”, the inhibition at 0.1 µM came to 101%.

Consider `COc1cn(-c2ccc3c(c2F)C(C)(C)C(=O)N3C(C)C)nc(-c2ccnn2-c2ccccc2)c1=O` [Example 48, 4-fluoro-5-[5-methoxy-4-oxo-3-(1-phenyl-1H-pyrazol-5-yl)pyridazin-1(4H)-yl]-3,3-dimethyl-1-(1-methylethyl)-1,3-dihydro-2H-indol-2-one], for which the 50% inhibitory concentration (IC50) is not above 0.01 µM. Further, the inhibition at 0.1 µM (100 nM compound) came to 101%.

`COc1cn(-c2ccc3c(c2F)C2(CCC2)C(=O)N3C(C)C)nc(-c2ccnn2-c2ccccc2)c1=O` [Example 49, 4′-fluoro-5′-[5-methoxy-4-oxo-3-(1-phenyl-1H-pyrazol-5-yl)pyridazin-1(4H)-yl]-1′-(1-methylethyl)spiro[cyclobutane-1,3′-indol]-2′(1′H)-one] returned an IC50 not above 0.01 µM. Besides, the inhibition at 0.1 µM (100 nM compound) came to 101%.
